Calls of active or inactive are those of the source. No rule for the calls is given here.
Tested on: CCRIS mutagenicity, Ames/micronucleus/aberration tests
Test: CCRIS mutagenicity studies
[1] = Test System: AMES SALMONELLA TYPHIMURIUM, Strain/Indicator: TA97, Metabolic Activation: NONE, Method: PREINCUBATION
[2] = Test System: AMES SALMONELLA TYPHIMURIUM, Strain/Indicator: TA98, Metabolic Activation: NONE, Method: STANDARD PLATE
[3] = Test System: AMES SALMONELLA TYPHIMURIUM, Strain/Indicator: TA98, Metabolic Activation: RAT, LIVER, S-9, AROCLOR 1254, Method: STANDARD PLATE
[4] = Test System: AMES SALMONELLA TYPHIMURIUM, Strain/Indicator: TA100, Metabolic Activation: NONE, Method: STANDARD PLATE
[5] = Test System: AMES SALMONELLA TYPHIMURIUM, Strain/Indicator: TA100, Metabolic Activation: RAT, LIVER, S-9, AROCLOR 1254, Method: STANDARD PLATE
[6] = Test System: AMES SALMONELLA TYPHIMURIUM, Strain/Indicator: TA1535, Metabolic Activation: NONE, Method: STANDARD PLATE
[7] = Test System: AMES SALMONELLA TYPHIMURIUM, Strain/Indicator: TA1535, Metabolic Activation: RAT, LIVER, S-9, AROCLOR 1254, Method: STANDARD PLATE
[8] = Test System: AMES SALMONELLA TYPHIMURIUM, Strain/Indicator: TA1537, Metabolic Activation: NONE, Method: STANDARD PLATE
[9] = Test System: AMES SALMONELLA TYPHIMURIUM, Strain/Indicator: TA1537, Metabolic Activation: RAT, LIVER, S-9, AROCLOR 1254, Method: STANDARD PLATE
[10] = Test System: AMES SALMONELLA TYPHIMURIUM, Strain/Indicator: TA1538, Metabolic Activation: NONE, Method: STANDARD PLATE
[11] = Test System: AMES SALMONELLA TYPHIMURIUM, Strain/Indicator: TA98, Metabolic Activation: MOUSE, LIVER, S-9, Method: STANDARD PLATE
[12] = Test System: AMES SALMONELLA TYPHIMURIUM, Strain/Indicator: TA100, Metabolic Activation: MOUSE, LIVER, S-9, Method: STANDARD PLATE

Measured: mutagenic call

O=C(O)O
inactive: [1] inactive; negative | Test System: AMES SALMONELLA TYPHIMURIUM, Strain/Indicator: TA97, Metabolic Activation: RAT, LIVER, S-9, AROCLOR 1254, Method: PREINCUBATION inactive; negative | Test System: AMES SALMONELLA TYPHIMURIUM, Strain/Indicator: TA98, Metabolic Activation: HAMSTER, LIVER, S-9, AROCLOR 1254, Method: STANDARD PLATE inactive; negative | [2] inactive; negative | [3] inactive; negative | Test System: AMES SALMONELLA TYPHIMURIUM, Strain/Indicator: TA100, Metabolic Activation: HAMSTER, LIVER, S-9, AROCLOR 1254, Method: STANDARD PLATE inactive; negative | [4] inactive; negative | [5] inactive; negative | Test System: AMES SALMONELLA TYPHIMURIUM, Strain/Indicator: TA102, Metabolic Activation: NONE, Method: PREINCUBATION inactive; negative | Test System: AMES SALMONELLA TYPHIMURIUM, Strain/Indicator: TA102, Metabolic Activation: RAT, LIVER, S-9, AROCLOR 1254, Method: PREINCUBATION inactive; negative | Test System: AMES SALMONELLA TYPHIMURIUM, Strain/Indicator: TA1535, Metabolic Activation: HAMSTER, LIVER, S-9, AROCLOR 1254, Method: STANDARD PLATE inactive; negative | [6] inactive; negative | [7] inactive; negative | Test System: AMES SALMONELLA TYPHIMURIUM, Strain/Indicator: TA1537, Metabolic Activation: HAMSTER, LIVER, S-9, AROCLOR 1254, Method: STANDARD PLATE inactive; negative | [8] inactive; negative | [9] inactive; negative | Test System: AMES SALMONELLA TYPHIMURIUM, Strain/Indicator: TA1538, Metabolic Activation: HAMSTER, LIVER, S-9, AROCLOR 1254, Method: STANDARD PLATE inactive; negative | [10] inactive; negative | Test System: AMES SALMONELLA TYPHIMURIUM, Strain/Indicator: TA1538, Metabolic Activation: RAT, LIVER, S-9, AROCLOR 1254, Method: STANDARD PLATE inactive; negative | Test System: CHINESE HAMSTER V-79, Strain/Indicator: V-79/6-THIOGUANINE, Metabolic Activation: S-9 inactive; negative | Test System: Mouse lymphoma, Strain/Indicator: L5178Y (tk+/tk-), Metabolic Activation: None, Method: Suspension/plate inactive; negative | Test System: Mouse lymphoma, Strain/Indicator: L5178Y (tk+/tk-), Metabolic Activation: Rat, Liver, S-9, Aroclor 1254, Method: Suspension/plate inactive; negative
active: Test System: CHINESE HAMSTER V-79, Strain/Indicator: V-79/6-THIOGUANINE, Metabolic Activation: NONE active; positive

C=CCC1(C(C)C#CCC)C(=O)N=C(O)N(C)C1=O (centres undefined)
inactive: Test System: AMES SALMONELLA TYPHIMURIUM, Strain/Indicator: TA97, Metabolic Activation: HAMSTER, LIVER, S-9, AROCLOR 1254 (10 OR 30%), Method: PREINCUBATION inactive; negative | [1] inactive; negative | Test System: AMES SALMONELLA TYPHIMURIUM, Strain/Indicator: TA97, Metabolic Activation: RAT, LIVER, S-9, AROCLOR 1254 (10 OR 30%), Method: PREINCUBATION inactive; negative | Test System: AMES SALMONELLA TYPHIMURIUM, Strain/Indicator: TA98, Metabolic Activation: HAMSTER, LIVER, S-9, AROCLOR 1254 (10 OR 30%), Method: PREINCUBATION inactive; negative | Test System: AMES SALMONELLA TYPHIMURIUM, Strain/Indicator: TA98, Metabolic Activation: NONE, Method: PREINCUBATION inactive; negative | Test System: AMES SALMONELLA TYPHIMURIUM, Strain/Indicator: TA98, Metabolic Activation: RAT, LIVER, S-9, AROCLOR 1254 (10 OR 30%), Method: PREINCUBATION inactive; negative | Test System: AMES SALMONELLA TYPHIMURIUM, Strain/Indicator: TA100, Metabolic Activation: HAMSTER, LIVER, S-9, AROCLOR 1254 (10 OR 30%), Method: PREINCUBATION inactive; negative | Test System: AMES SALMONELLA TYPHIMURIUM, Strain/Indicator: TA100, Metabolic Activation: NONE, Method: PREINCUBATION inactive; negative | Test System: AMES SALMONELLA TYPHIMURIUM, Strain/Indicator: TA100, Metabolic Activation: RAT, LIVER, S-9, AROCLOR 1254 (10 OR 30%), Method: PREINCUBATION inactive; negative | Test System: AMES SALMONELLA TYPHIMURIUM, Strain/Indicator: TA1535, Metabolic Activation: HAMSTER, LIVER, S-9, AROCLOR 1254 (10 OR 30%), Method: PREINCUBATION inactive; negative | Test System: AMES SALMONELLA TYPHIMURIUM, Strain/Indicator: TA1535, Metabolic Activation: NONE, Method: PREINCUBATION inactive; negative | Test System: AMES SALMONELLA TYPHIMURIUM, Strain/Indicator: TA1535, Metabolic Activation: RAT, LIVER, S-9, AROCLOR 1254 (10 OR 30%), Method: PREINCUBATION inactive; negative

C=CCCCCCCCCC
inactive: [11] inactive; negative | [2] inactive; negative | [12] inactive; negative | [4] inactive; negative | [6] inactive; negative | [10] inactive; negative

CC[C@H]1OC(=O)[C@H](C)[C@@H](O[C@H]2C[C@@](C)(OC)[C@@H](O)[C@H](C)O2)[C@H](C)[C@@H](O[C@@H]2O[C@H](C)C[C@H](N(C)C)[C@H]2O)[C@](C)(O)C[C@@H](C)CN(C)[C@H](C)[C@@H](O)[C@]1(C)O
inactive: Test System: AMES SALMONELLA TYPHIMURIUM, Strain/Indicator: TA98, Metabolic Activation: MOUSE, LIVER, S-9, AROCLOR 1254, Method: STANDARD PLATE inactive; negative | [11] inactive; negative | [2] inactive; negative | [3] inactive; negative | Test System: AMES SALMONELLA TYPHIMURIUM, Strain/Indicator: TA98, Metabolic Activation: RAT, LIVER, S-9, Method: STANDARD PLATE inactive; negative | Test System: AMES SALMONELLA TYPHIMURIUM, Strain/Indicator: TA100, Metabolic Activation: MOUSE, LIVER, S-9, AROCLOR 1254, Method: STANDARD PLATE inactive; negative | [12] inactive; negative | [4] inactive; negative | [5] inactive; negative | Test System: AMES SALMONELLA TYPHIMURIUM, Strain/Indicator: TA100, Metabolic Activation: RAT, LIVER, S-9, Method: STANDARD PLATE inactive; negative | Test System: AMES SALMONELLA TYPHIMURIUM, Strain/Indicator: TA1535, Metabolic Activation: MOUSE, LIVER, S-9, AROCLOR 1254, Method: STANDARD PLATE inactive; negative | Test System: AMES SALMONELLA TYPHIMURIUM, Strain/Indicator: TA1535, Metabolic Activation: MOUSE, LIVER, S-9, Method: STANDARD PLATE inactive; negative | [6] inactive; negative | [7] inactive; negative | Test System: AMES SALMONELLA TYPHIMURIUM, Strain/Indicator: TA1535, Metabolic Activation: RAT, LIVER, S-9, Method: STANDARD PLATE inactive; negative | Test System: AMES SALMONELLA TYPHIMURIUM, Strain/Indicator: TA1537, Metabolic Activation: MOUSE, LIVER, S-9, AROCLOR 1254, Method: STANDARD PLATE inactive; negative | Test System: AMES SALMONELLA TYPHIMURIUM, Strain/Indicator: TA1537, Metabolic Activation: MOUSE, LIVER, S-9, Method: STANDARD PLATE inactive; negative | [8] inactive; negative | [9] inactive; negative | Test System: AMES SALMONELLA TYPHIMURIUM, Strain/Indicator: TA1537, Metabolic Activation: RAT, LIVER, S-9, Method: STANDARD PLATE inactive; negative | Test System: MOUSE LYMPHOMA, Strain/Indicator: L5178Y (TK+/TK-), Metabolic Activation: NONE, Method: SUSPENSION/PLATE inactive; negative | Test System: MOUSE LYMPHOMA, Strain/Indicator: L5178Y (TK+/TK-), Metabolic Activation: RAT, LIVER, S-9, Method: SUSPENSION/PLATE inactive; negative

O=c1c(O)c2c(c3c1ccc1c3cccn1O)O2
inactive: [4] inactive; negative

Reference: PubChem BioAssay AID1259407 (Chemical Carcinogenesis Research Information System (CCRIS), 2018)
